Results taken from US20230014181A1, “CULTURE SYSTEM AND METHODS FOR IMPROVED MODELING OF NEUROLOGICAL CONDITIONS” (Genentech, Inc., priority 2021, published 2023).
Read-outs that look alike come from different tables or passages of the source.

How the values were obtained:
[1] = test system: human iPSC-derived microglia treated with 5 μM soluble Aβ species; assay: Microglia plaque formation (Methoxy-X04-positive structures) with dynamin inhibitors; type: cell-based; details: 0.6 μM for 24 h
Procedure: Error bars+/−s.e.m. and n=4 wells; ANOVA ***P<0.001, **P<0.01.
iPSC derived microglia were obtained and screened for microglia marker expression. iPSC microglia were then differentiated. Briefly, iPSCs were treated with BMP, FGF and activin for 2-4 days to induce mesoderm fate, then treated with VEGF and supportive hematopoietic cytokines for 6-10 days to generate hematopoietic progenitors (HPCs). HPCs were seeded onto matrigel-coated flasks, and treated with IL-34, IDE1 (TGF-β1 agonist), and M-CSF for 3-4 weeks to differentiate into microglia. Human iPSC microglia were validated by immunostaining of the following markers: Goat anti-TREM2 (1:500), Mouse anti-MERTK (1:500), Rabbit anti-IBA1 (1:1000), Rabbit anti-TMEM119 (1:500), CD33 (1:500), CX3CR1 (1:500), CD64 (1:500), P2RY12 (1:500), CD32 (1:500), PU.1 (1:500).
To further confirm time-lapsed result, an immunostaining time-course study was performed. Microglia took up Aβs within 30 minutes (FIG. 14D). After 6 hours, small internalized puncta disappeared and a larger, faintly X04 positive, Aβ42 aggregate appeared at the edge near each cell (FIG. 14D). After 1 day, larger Aβ42 aggregates with higher X04 staining intensity were seen next to microglia, and additional microglia began to surround these aggregates. At 4 days X04 dye positive plaque structures were present with surrounding microglia. […]

[2] = test system: Aβ42 oligomer-induced neural toxicity in human iPSC neurons; assay: Hit validation by IC50 curves in double culture (MAP2, Synapsin 1/2, CUX2, NFL-H); type: cell-based; details: dose response
Procedure: (§1) Error bars+/−s.e.m. and n=4 wells. IC50 curves were fitted by Prism software.
as §1
Error bars+/−s.e.m. and n=4 wells. IC50 curves were fitted using Prism software.
To further validate this pathway, several known inhibitors of kinases in the DLK signaling pathway were tested to determine whether they could also be neuroprotective in the AD model.

[3] = test system: human iPSC-derived neurons; assay: 21-day time course of single doses of soluble Aβ42 species on iPSC neurons; type: cell-based; details: 1.25 μM
Procedure: To investigate whether AD pathologies can be studied in a controlled, in vitro system of human neurons, cultured human iPSC-derived neurons were treated with synthetic Aβ42 oligomers, prepared by oligomerization of Aβ42 monomers at 4° C. following previously published protocols (FIG. 2A; following Stine et al., 2011). Briefly, AggreSure™ β-Amyloid (1-42), human monomers (Anaspec) were resuspended in DMSO followed by PBS to form a 100 μM solution. Aβ42 monomers were subsequently incubated at 4° C. for 24 hours, then frozen at −80° C. to stop the oligomerization process. Five to six lots of Aβ42 monomers were screened at time and assessed for neurotoxic and the degree of toxicity. […] For fluorescent Aβ42 oligomer experiments, Beta-Amyloid (1-42), HiLyte™ Fluor 555-labeled, Human (Anaspec) was used. For pHrodo experiments, Beta-Amyloid (1-42) buman was labeled with pHrodo™ Green AM Intracellular pH Indicator (Invitrogen) according to manufacturer's protocol.
Prior to experimentation, media volume in wells containing neurons was equalized with liquid handling automation (Bravo) in order to ensure precise control of concentrations. All Aβ42 oligomers, anti-Aβ, small molecules, inflammatory cytokines were prepared at 10× concentration and added to Neuronal Culture Media at an appropriate volume. […]

[4] = test system: primary rat cortical neurons; assay: Aβ42 oligomer toxicity in primary rat cortical neurons; type: cell-based; details: several lots
Procedure: (§2) Error bars+/−s.e.m. and n=4 wells.
The preps were determined to contain a heterogeneous mixture of both soluble oligomer and fibrils, and thus were referred to as “soluble Aβ42 species” (Aps).

soluble Aβ42 species = assay: Anti-Aβ antibody co-treatment rescue of soluble Aβ42 species neurotoxicity in iPSC neurons; type: cell-based, human
Procedure: as §2
To investigate whether AD pathologies can be studied in a controlled, in vitro system of human neurons, cultured human iPSC-derived neurons were treated with synthetic Aβ42 oligomers, prepared by oligomerization of Aβ42 monomers at 4° C. following previously published protocols (FIG. 2A; following Stine et al., 2011). Briefly, AggreSure™ β-Amyloid (1-42), human monomers (Anaspec) were resuspended in DMSO followed by PBS to form a 100 μM solution. Aβ42 monomers were subsequently incubated at 4° C. for 24 hours, then frozen at −80° C. to stop the oligomerization process. Five to six lots of Aβ42 monomers were screened at time and assessed for neurotoxic and the degree of toxicity. About twenty lots for screened in the course of 4 years. For fluorescent Aβ42 oligomer experiments, Beta-Amyloid (1-42), HiLyte™ Fluor 555-labeled, Human (Anaspec) was used. […]
Several additional tau phosphorylation sites observed in AD, S396/404, S217, S235, S400/T403/S404, and T181, were hyperphosphorylated when treated with Aβ42 oligomers (FIGS. 4V-4Z). […] Using this quantitative platform, the half-maximal inhibitory concentration (IC50) for anti-Aβ antibody rescue of MAP2, synapsin, and pTau induction was generated (FIG. 3R).

primary human astrocytes = assay: Astrocyte GFAP expression in response to soluble Aβ species; type: cell-based; details: astrocytes cultured alone; 3DIV
Procedure: Error bars+/−s.e.m. and n=4 wells; ANOVA ****P<0.0001, ***P<0.001, **P<0.01.
Astrocytes were then validated. Briefly, primary human astrocytes were detached using Accumax (Innovative Cell Technologies) and seeded onto 384-well plates coated with 1:100 Geltrex™ (Thermofisher) solution for at least 1 hour in a 37° C. cell incubator. Cells were seeded at a density of 2,000 cells/well in Neuron Maintenance Medium (1× BrainPhys™ Basal (StemCell Technology), 1× B27 with Vitamin A, 1×N-2, 5 μg/mL cholesterol, 1 mM creatine, 10 nM β-estradiol, 200 nM ascorbic acid, 1 mM cAMP (Sigma-Aldrich), 20 ng/mL BDNF, 20 ng/mL GDNF, 1 μg/mL Laminin, 0.5 mM GlutaMAX™ (Thermofisher), 1 ng/mL TGF-β1, 1× normocin, 50 U/mL penicillin-streptomycin). Cells were placed in 37° C. cell incubator for 24 hours to allow for attachment. Aβ42 and antibody treatments were added as described in other Examples. Astrogliosis was validated was validated by immunostaining of the following markers: Guinea Pig anti GFAP (1:500), Rabbit anti EAAT1 (1:500), Rabbit anti vimentin (1:500), Rabbit ALDH1L1 (1:500).

[5] = test system: human iPSC neurons, astrocytes and microglia treated with 5 μM sAβ42s; assay: Focused small molecule screen, triple culture (neuron, astrocyte, microglia), rescue from sAβ42s toxicity; type: cell-based; details: for percent rescue from sAβ42s toxicity at 50 µM: Homo sapiens, iPSC
Procedure, shortened: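 Human iPSC neuron-astrocyte co-cultures (8 weeks old), with or without added iPSC microglia (8,000 cells/well), were exposed to 5 μM sAβ42s together with compounds at up to four concentrations: 50–6.25 μM for double cultures and 50–0.78 μM for triple cultures. Rescue of MAP2, synapsin 1/2, CUX2 count or axon (NFL-H/βIII-tubulin) readouts of ≥30% was scored as a hit.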

[6] = test system: human iPSC neurons and astrocytes treated with 5 μM sAβ42s; assay: Focused small molecule screen, double culture (neuron, astrocyte), rescue from sAβ42s toxicity, high content imaging; type: cell-based; details: 50 μM compound, double culture, 5 μM sAβ42s; for percent rescue from sAβ42s toxicity at 50 µM: Homo sapiens, iPSC
Procedure, shortened: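 Human iPSC neuron–astrocyte cultures given 5 μM sAβ42 oligomers plus compounds at 50, 25, 12.5 and 6.25 μM (10× additions). Fixed cells immunostained for MAP2, synapsin 1/2, CUX2 and beta III tubulin, imaged by confocal high-content microscopy; % rescue computed, ≥30% in any readout scored as hit.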

## O=C(N/N=C/c1ccc(O)c(O)c1)c1cc2ccccc2cc1O [Dynasore]
[1]
  decrease of plaque formation (Methoxy-X04-positive plaque-like structures): approximately 4 fold

## Cc1cc(NC(=O)c2cccc(NC(=O)/C=C/CN(C)C)c2)ccc1Nc1nccc(-c2cccnc2)n1 [JNK-IN-8]
[2]
  neuronal protection against Aβ: conferred neuronal protection against Aβ in a dose-dependent manner

## Cc1cc(Nc2cc(N3CCN(C)CC3)nc(Sc3ccc(NC(=O)C4CC4)cc3)n2)n[nH]1 [VX-680]
[2]
  neuronal protection against Aβ: conferred neuronal protection against Aβ in a dose-dependent manner

## Nc1ncc(C(=O)NC2CN(C(=O)C3CC3)C2)c2ccc(-c3cccc(F)c3)nc12 [GNE-495]
[2]
  neuronal protection against Aβ: conferred neuronal protection against Aβ in a dose-dependent manner

## Nc1ccc(-c2cnc(N)c(-c3ccc(Cl)cc3)c2)cn1 [PF06260933]
[2]
  neuronal protection against Aβ: conferred neuronal protection against Aβ in a dose-dependent manner

## soluble Aβ42 species: heterogeneous mixture of soluble oligomer and fibrils made from synthetic Aβ42 monomers at 4° C.
[3]
  dendrite or axon reduction: no effect on dendrite or axon reduction
[4]
  reduction in dendrites or synapses: did not show reduction in dendrites or synapses

## CCCCCCCCNC(=O)/C(C#N)=C/c1cn(CCCN(C)C)c2ccccc12 [Dynole 34-2]
[1]
  decrease of plaque formation (Methoxy-X04-positive plaque-like structures): approximately 4 fold

## Crenezumab: anti-Aβ antibody
Soluble Aβ42 species; NAG-NSC Line 2
  phospho-Tau p396-404 and p400-403-404 upregulation: blocked
Soluble Aβ42 species; NAG-NSC Line 2 and primary astrocytes, 5 μM soluble Aβ species, 7 days
  loss of dendrites (MAP2) and synapses (synapsin): rescued
Primary human astrocytes
  GFAP upregulation by soluble Aβ species: blocked

## N#C/C(=C\c1ccc(O)c(O)c1)C(=O)OCCc1cccs1 [2-TEDC]
[5]; 3.13 μM compound
  % B3T rescue: 40%
  % MAP2 rescue: 22%
  % Synapse rescue: 15%
[5]; 12.50 μM compound
  % B3T rescue: 43%
  % MAP2 rescue: 25%
  % Synapse rescue: 17%
[5]; 50.00 μM compound
  % B3T rescue: 73%
  % MAP2 rescue: 48%
  % Synapse rescue: 40%
[6]
  % B3T rescue: 31%
  % Cux2 rescue: 16%
  % MAP2 rescue: 22%
  % Synapse rescue: 10%

## CC(=O)c1c(C)c2cnc(Nc3ccc(N4CCNCC4)cn3)nc2n(C2CCCC2)c1=O [PD 0332991 isethionate]
[5]; 50.00 μM compound, read-out: % B3T rescue
  percent rescue from sAβ42s toxicity at 50 µM: 90%
[5]; 50.00 μM compound, read-out: % MAP2 rescue
  percent rescue from sAβ42s toxicity at 50 µM: -79%
[5]; 50.00 μM compound, read-out: % Synapse rescue
  percent rescue from sAβ42s toxicity at 50 µM: -29%
[6]; read-out: % B3T rescue
  percent rescue from sAβ42s toxicity at 50 µM: 69%
[6]; read-out: % Cux2 rescue
  percent rescue from sAβ42s toxicity at 50 µM: -37%
[6]; read-out: % MAP2 rescue
  percent rescue from sAβ42s toxicity at 50 µM: -97%
[6]; read-out: % Synapse rescue
  percent rescue from sAβ42s toxicity at 50 µM: -15%
